Results: ChEMBL document CHEMBL3217533, “Inhibition of Ras-Effector Interaction by Cyclic Peptides” (Medchemcomm, 2013)
One block for each compound: values may come before it. Calls of active or inactive are those of the source. No cut-off for these calls is given here. *1 amine or outer side, *2 acyl side, *3 side chain or, on linkers, in order; H or OH if unused. Where a SMILES comes first, the peptide text is derived from it. Bridges are numbered along the chain shown (N, C = ends). [ ]: non-standard residue; d: D form. dβ3h(hPhe) = O=C(C[C@@H](CCc1ccccc1)N[*:1])[*:2]; Phe(4-F) = N[C@@H](Cc1ccc(F)cc1)C(=O)O; X1 = CC(C)(CO[*:2])C(=O)C(=O)[*:1]; Pip = O=C(O)[C@@H]1CCCCN1

Tests used:
Albumin = Albumin (Bos taurus, UniProt P02769); assay: Binding affinity to bovine serum albumin up to 20 uM by fluorescence anisotropic assay; conditions: cattle
[1] = system: GTPase KRas (Homo sapiens), P01116 [G12V]; assay: Inhibition of K-Ras G12V mutant in human H358 cells assessed as decrease in Mek phosphorylation up to 16 hrs; format: cell-based
[2] = Binding affinity to MBP-tagged VP35 (unknown origin) up to 20 uM by fluorescence anisotropic assay
[3] = system: GTPase KRas (Homo sapiens), P01116 [G12V]; assay: Inhibition of K-Ras G12V mutant (unknown origin) assessed as disruption of interaction with Tiam1 at 10 uM after 60 mins by fluorescence microscopic-based bead binding assay
[4] = system: GTPase KRas (Homo sapiens), P01116 [G12V]; assay: Inhibition of K-Ras G12V mutant in human A549 cells assessed as decrease in Erk phosphorylation up to 16 hrs; format: cell-based
[5] = system: GTPase KRas (Homo sapiens), P01116 [G12V]; assay: Inhibition of K-Ras G12V mutant in human H358 cells assessed as decrease in Erk phosphorylation up to 16 hrs; format: cell-based
[6] = target: T1, Tyrosine-protein phosphatase non-receptor type 2 (Homo sapiens) (UniProt P17706); assay: Binding affinity to TCPTP (unknown origin) up to 20 uM by fluorescence anisotropic assay
T1 sequence (whole entry): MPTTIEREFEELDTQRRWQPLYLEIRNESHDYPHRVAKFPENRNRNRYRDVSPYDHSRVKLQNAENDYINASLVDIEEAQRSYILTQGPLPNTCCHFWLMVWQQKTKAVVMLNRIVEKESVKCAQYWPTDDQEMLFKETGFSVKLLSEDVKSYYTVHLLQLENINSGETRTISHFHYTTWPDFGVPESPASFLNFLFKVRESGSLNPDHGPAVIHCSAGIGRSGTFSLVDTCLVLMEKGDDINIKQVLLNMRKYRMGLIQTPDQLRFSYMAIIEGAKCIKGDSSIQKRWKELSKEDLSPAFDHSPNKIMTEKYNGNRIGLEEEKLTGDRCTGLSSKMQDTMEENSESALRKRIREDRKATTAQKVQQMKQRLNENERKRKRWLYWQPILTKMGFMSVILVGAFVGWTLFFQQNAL

[7] = system: GTPase KRas (Homo sapiens), P01116 [G12V]; assay: Inhibition of K-Ras G12V mutant (unknown origin) assessed as disruption of interaction with GST-tagged Raf-RBD at 10 uM after 60 mins by fluorescence microscopic-based bead binding assay
[8] = target: SH2 domain-containing protein 2A (Homo sapiens) (UniProt Q9NP31); assay: Binding affinity to GST-tagged TSAD SH2 domain (unknown origin) up to 20 uM by fluorescence anisotropic assay
[9] = system: GTPase KRas (Homo sapiens), P01116 [G12V]; assay: Inhibition of K-Ras G12V mutant in human A549 cells assessed as decrease in Mek phosphorylation up to 16 hrs; format: cell-based
[10] = system: GTPase KRas (Homo sapiens), P01116 [G12V]; conditions: 10 uM
[11] = system: GTPase KRas (Homo sapiens), P01116 [G12V]; assay: Inhibition of K-Ras G12V mutant (unknown origin) assessed as disruption fluorescein-labeled Raf binding to beads immobilized with K-Ras G12V mutant at 10 uM after 60 mins by fluorescence microscopic-based bead binding assay
[12] = target: T2, Tyrosine-protein phosphatase non-receptor type 1 (Homo sapiens) (UniProt P18031); assay: Binding affinity to PTP1B (unknown origin) up to 20 uM by fluorescence anisotropic assay
T2 sequence (whole entry): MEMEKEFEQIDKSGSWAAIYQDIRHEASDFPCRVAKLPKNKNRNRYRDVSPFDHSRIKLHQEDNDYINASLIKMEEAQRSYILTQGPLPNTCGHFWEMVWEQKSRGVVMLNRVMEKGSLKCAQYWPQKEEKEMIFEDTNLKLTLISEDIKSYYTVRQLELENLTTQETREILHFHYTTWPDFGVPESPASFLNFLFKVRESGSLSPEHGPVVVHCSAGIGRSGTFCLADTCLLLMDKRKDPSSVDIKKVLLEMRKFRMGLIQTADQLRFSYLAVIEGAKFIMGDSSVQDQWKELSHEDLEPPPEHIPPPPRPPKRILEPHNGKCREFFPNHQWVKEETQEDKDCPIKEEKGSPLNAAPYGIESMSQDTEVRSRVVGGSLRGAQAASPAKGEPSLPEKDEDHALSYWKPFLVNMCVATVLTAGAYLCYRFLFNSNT

[13] = system: GTPase KRas (Homo sapiens), P01116 [G12V]; assay: Binding affinity to K-Ras G12V mutant (unknown origin) by surface plasmon resonance assay
GTPase KRas = GTPase KRas (Homo sapiens, UniProt P01116, G12V); assay: Inhibition of recombinant HA-tagged K-Ras G12V mutant (unknown origin) assessed as disruption of interaction with GST-tagged Raf-RBD after overnight incubation by HTRF assay
[14] = system: GTPase KRas (Homo sapiens), P01116 [G12V]; assay: Binding affinity to K-Ras G12V mutant (unknown origin) after 2 hrs by fluorescence polarization-based spectrofluorimetric analysis

GTPase KRas, sequence (P01116 whole entry G12V): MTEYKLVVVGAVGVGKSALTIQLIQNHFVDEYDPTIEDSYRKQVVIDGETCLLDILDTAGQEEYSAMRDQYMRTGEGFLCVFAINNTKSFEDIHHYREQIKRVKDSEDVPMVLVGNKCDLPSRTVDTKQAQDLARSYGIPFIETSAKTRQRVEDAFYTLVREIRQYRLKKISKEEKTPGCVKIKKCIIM
GTPase KRas (Homo sapiens), P01116 [G12V], sequence (P01116 whole entry G12V, the tested form may be a part): as the sequence (P01116 whole entry G12V) above
SH2 domain-containing protein 2A (Homo sapiens), sequence (Q9NP31 whole entry, looked up, the tested form may be a part): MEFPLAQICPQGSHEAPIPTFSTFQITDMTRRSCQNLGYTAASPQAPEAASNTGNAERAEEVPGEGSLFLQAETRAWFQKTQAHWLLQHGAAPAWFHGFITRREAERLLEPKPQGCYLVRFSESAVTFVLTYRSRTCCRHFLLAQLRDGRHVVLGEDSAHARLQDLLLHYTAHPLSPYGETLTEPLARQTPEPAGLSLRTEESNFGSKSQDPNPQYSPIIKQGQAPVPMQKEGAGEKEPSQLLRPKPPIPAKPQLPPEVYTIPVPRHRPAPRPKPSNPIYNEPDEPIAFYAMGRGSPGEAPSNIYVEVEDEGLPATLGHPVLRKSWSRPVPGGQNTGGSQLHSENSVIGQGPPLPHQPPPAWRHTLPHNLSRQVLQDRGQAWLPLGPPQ
Albumin, sequence (P02769 whole entry): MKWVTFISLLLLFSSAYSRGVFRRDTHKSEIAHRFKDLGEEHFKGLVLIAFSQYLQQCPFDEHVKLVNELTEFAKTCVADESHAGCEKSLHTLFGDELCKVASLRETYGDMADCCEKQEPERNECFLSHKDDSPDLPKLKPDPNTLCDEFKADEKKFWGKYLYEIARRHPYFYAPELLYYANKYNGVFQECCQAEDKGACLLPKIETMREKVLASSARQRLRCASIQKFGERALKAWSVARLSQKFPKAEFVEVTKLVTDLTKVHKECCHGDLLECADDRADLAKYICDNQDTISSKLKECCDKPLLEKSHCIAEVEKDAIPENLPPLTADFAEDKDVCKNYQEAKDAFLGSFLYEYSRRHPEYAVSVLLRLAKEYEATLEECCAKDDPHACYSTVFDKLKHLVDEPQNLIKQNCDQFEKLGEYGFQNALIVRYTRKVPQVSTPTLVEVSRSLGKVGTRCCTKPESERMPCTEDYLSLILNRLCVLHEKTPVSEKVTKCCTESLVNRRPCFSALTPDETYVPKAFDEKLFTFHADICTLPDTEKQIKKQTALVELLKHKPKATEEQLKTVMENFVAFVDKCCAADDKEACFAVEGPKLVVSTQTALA

Structure (SMILES): CCCC[C@H]1NC(=O)[C@H](Cc2ccc(F)cc2)NC(=O)[C@H](CCCN=C(N)N)NC(=O)[C@@H](Cc2ccc3ccccc3c2)NC(=O)[C@H](CCCN=C(N)N)NC(=O)[C@H](CCCN=C(N)N)NC(=O)[C@H](CCC(N)=O)NC(=O)C[C@@H](CCc2ccccc2)NC(=O)[C@@H]2CCCCN2C(=O)C(=O)C(C)(C)COC1=O
- Activity (Albumin): Active
- inhibition [1]: inactive
- Activity [2]: Active
- inhibition [3]: Active
- inhibition [4]: inactive
- inhibition [5]: inactive
- Activity [6]: Active
- inhibition [7]: Active
- Activity [8]: Active
- inhibition [9]: inactive
- inhibition [10]: Active
- inhibition [11]: Active
- Activity [12]: Active
- Activity [13]: Active

Structure (SMILES): CC(C)C[C@@H]1NC(=O)[C@H](CCCNC(=N)N)NC(=O)[C@H](CCCNC(=N)N)NC(=O)[C@H](Cc2ccc(O)cc2)NC(=O)[C@H](Cc2ccc(F)cc2)NC(=O)[C@H](CCCNC(=N)N)NC(=O)[C@H](CCC(N)=O)NC(=O)C[C@@H](CCc2ccccc2)NC(=O)[C@@H]2CCCCN2C(=O)C(=O)C(C)(C)COC1=O ([Pip][dβ3h(hPhe)]QR[Phe(4-F)]YRRL; linker N-C via X1)
- Activity (Albumin): Not Active
- Activity [2]: inactive
- Activity [14]: inactive
- Activity [6]: inactive
- Activity [8]: inactive
- Activity [12]: inactive

Structure (SMILES): CC(C)C[C@@H]1NC(=O)[C@H](CCC(=O)O)NC(=O)[C@H](c2ccccc2)NC(=O)[C@@H](Cc2ccccc2)NC(=O)[C@H](CCCN)NC(=O)[C@@H]2CCCN2C(=O)[C@H](CCC(N)=O)NC(=O)C[C@@H](CCc2ccccc2)NC(=O)[C@@H]2CCCCN2C(=O)C(=O)C(C)(C)COC1=O
- IC50 (GTPase KRas): 10 µM

Structure (SMILES): CC1(C)COC(=O)[C@H](Cc2ccccc2)NC(=O)[C@H](CCCNC(=N)N)NC(=O)CNC(=O)[C@H](Cc2ccc(O)cc2)NC(=O)[C@@H](Cc2ccc3ccccc3c2)NC(=O)[C@H](CCCN)NC(=O)[C@H](CCC(N)=O)NC(=O)C[C@@H](CCc2ccccc2)NC(=O)[C@@H]2CCCCN2C(=O)C1=O
- IC50 (GTPase KRas): 1.8 µM

Structure (SMILES): CC1(C)COC(=O)[C@H](Cc2ccccc2)NC(=O)[C@H](CCCNC(=N)N)NC(=O)[C@H](Cc2ccc(O)cc2)NC(=O)[C@@H]2CCCN2C(=O)[C@H](Cc2ccc(O)cc2)NC(=O)[C@@H](Cc2ccccc2)NC(=O)[C@H](CCC(N)=O)NC(=O)C[C@@H](CCc2ccccc2)NC(=O)[C@@H]2CCCCN2C(=O)C1=O
- IC50 (GTPase KRas): 10 µM

Structure (SMILES): CCCC[C@H]1NC(=O)[C@@H](Cc2ccc3ccccc3c2)NC(=O)[C@@H](Cc2ccc3ccccc3c2)NC(=O)[C@@H](CCCCN)NC(=O)[C@H](CCCNC(=N)N)NC(=O)[C@H](Cc2ccc(F)cc2)NC(=O)[C@H](CCC(N)=O)NC(=O)C[C@@H](CCc2ccccc2)NC(=O)[C@@H]2CCCCN2C(=O)C(=O)C(C)(C)COC1=O
- IC50 (GTPase KRas): 10 µM

Further lines, results first:

- IC50 (GTPase KRas): 2 µM
Structure (SMILES): CC(C)C[C@@H]1NC(=O)[C@@H](Cc2ccc3ccccc3c2)NC(=O)[C@H](CCCNC(=N)N)NC(=O)[C@@H](C(C)C)NC(=O)[C@H](CCCNC(=N)N)NC(=O)[C@H](C)NC(=O)[C@H](CCC(N)=O)NC(=O)C[C@@H](CCc2ccccc2)NC(=O)[C@@H]2CCCCN2C(=O)C(=O)C(C)(C)COC1=O

- IC50 (GTPase KRas): 1.1 µM
Structure (SMILES): CC1(C)COC(=O)[C@H](Cc2ccccc2)NC(=O)[C@H](CCCNC(=N)N)NC(=O)[C@@H](Cc2ccc3ccccc3c2)NC(=O)[C@H](CCCNC(=N)N)NC(=O)[C@@H](Cc2ccccc2)NC(=O)[C@H](CCCN=C(N)N)NC(=O)[C@H](CCC(N)=O)NC(=O)C[C@@H](CCc2ccccc2)NC(=O)[C@@H]2CCCCN2C(=O)C1=O

- IC50 (GTPase KRas): 2.3 µM
Structure (SMILES): C[C@@H]1NC(=O)[C@H](Cc2ccc(O)cc2)NC(=O)[C@H](CCCNC(=N)N)NC(=O)[C@@H]([C@H](C)O)NC(=O)CNC(=O)[C@H](CCC(N)=O)NC(=O)C[C@@H](CCc2ccccc2)NC(=O)[C@@H]2CCCCN2C(=O)C(=O)C(C)(C)COC(=O)[C@H](Cc2ccccc2)NC1=O

- IC50 (GTPase KRas): 1.2 µM
Structure (SMILES): CC(C)[C@@H]1NC(=O)[C@@H](CC(N)=O)NC(=O)[C@H](CCCNC(=N)N)NC(=O)[C@H](CCCNC(=N)N)NC(=O)[C@H](Cc2ccc(F)cc2)NC(=O)[C@H](Cc2ccc(O)cc2)NC(=O)[C@H](CCC(N)=O)NC(=O)C[C@@H](CCc2ccccc2)NC(=O)[C@@H]2CCCCN2C(=O)C(=O)C(C)(C)COC1=O
